The test system of series [1] is Human iPSC-derived neural 3D co-cultures (microBrain 3D spheroids). In words: Calcium oscillation assay in iPSC-derived neural 3D spheroids (microBrain 3D, FLIPR Calcium 6 Assay Kit, Peak Pro 2 analysis). The class given is cell-based. The settings on record: neural spheroid; for frequency of primary peaks relative to control: control DMSO; for peaks detected in calcium oscillation trace (primary / secondary peaks): recorded ten minutes after 30 minutes treatment. The source says:
Human iPSC-derived neural 3D co-cultures (StemoniX® microBrain® 3D platform) have been developed as a high-throughput screening platform that more closely resembles the constitution of native human cortical brain tissue. Neural spheroid 3D co-cultures are a physiologically relevant co-culture of iPSC-derived, functionally-active cortical glutamatergic and GABAergic neurons co-differentiated and matured with astrocytes from the same donor. 3D neural spheroids contain a neural network enriched in synapses, creating a highly functional neuronal circuitry and display spontaneous synchronized, readily detectable calcium oscillations.
The neuronal cells in the microBrain® 3D spheroids generate spontaneous synchronized calcium oscillations. Fast kinetic fluorescence imaging by the FLIPR® Penta® system was employed to measure the patterns and frequencies of Ca^2+ oscillations of neuro-spheroids, as monitored by changes in intracellular Ca^2+ levels with the FLIPR® Calcium 6 Assay Kit. A set of known neuromodulators was tested, including agonists and antagonists of NMDA, GABA and AMPA receptors; kainic acid; and analgesic and anti-epileptic drugs. The fluorescence from each well of an entire 384-well plate was recorded simultaneously at a frequency of 2 Hz (0.5 second sampling interval) by high-speed imaging using the FLIPR® Penta® system.
Advanced analysis methods implemented in the ScreenWorks® Peak Pro™ 2 software module provide multi-parametric characterization of Ca^2+ flux oscillation patterns. This phenotypic assay creates readouts such as oscillation frequency, amplitude, peak width, peak rise and decay times, and peak amplitude/spacing irregularity. The effects of modulators of neuronal activity were evaluated by measuring changes in several measurements.
A set of over twenty compounds, including a number of known modulators of neuronal activity, was assayed at different time points and concentrations, and the EC50 values were calculated for compound effects. The time points included 0, 15, 30, 60, 90, and 120 minutes, and 24 hours.

Series [2] relates to human iPSC-derived cardiomyocytes. Kind of series: Calcium oscillation assay in iPSC-derived cardiomyocytes (FLIPR Penta, EarlyTox Cardiotoxicity Kit, Peak Pro 2 analysis). It is filed as cell-based. The settings on record: for primary peak prolongation / spacing of primary peaks: after thirty minutes treatment; for peaks detected in calcium oscillation trace (primary / secondary peaks): recorded two minutes after thirty minutes treatment. The procedure:
Development of biologically relevant and predictive cell-based assays for compound screening and toxicity assessment is a major challenge in drug discovery. The focus of this study was to establish high-throughput-compatible cardiotoxicity assays using human-induced pluripotent stem cell (iPSC)-derived cardiomyocytes. To assess the utility of human iPSC-derived cardiomyocytes as an in vitro pro-arrhythmia model, the concentration dependence and responses were evaluated for 28 drugs linked to low, intermediate, and high torsades de pointes (TdP) risk categories. […] This assay allows for the characterization of parameters such as beating frequency, amplitude, peak width, and rise and decay times. […] The iPSC-derived cardiomyocytes generate spontaneous synchronized calcium oscillations. High speed fluorescence imaging with the FLIPR® Penta® System was used to measure the patterns and frequencies of the Ca^2+ oscillations in cardiomyocytes as monitored by changes in intracellular Ca^2+ levels with the EarlyToxTM Cardiotoxicity Kit. A set of 28 known cardiotoxic compounds, plus several benchmark compounds and negative controls, were tested in the assay. iPSC-derived Cardiomyocytes: Cryopreserved human iPSC-derived cells from Cellular Dynamics International (CDI) iCell® Cardiomyocytes2 were used for experiments. Cells were thawed and plated at 20,000/well (96-well format) or 10,000/well into 384-well format plates (Corning) and incubated for 7 days in maintenance media. […] In addition, assay-ready 384-Well plates with cardiomyocytes1 were obtained from […], Inc. Plates were shipped pre-plated and allowed to recover after arrival for 2 days. […] The FLIPR® Penta® System equipped with a new high speed camera allows better resolution of calcium oscillation patterns in cardiomyocytes. The ScreenWorks® Peak ProTM 2 software allows complex event analysis and detailed characterization of patterns using more than 20 available pattern descriptors. The assay can be used for testing developing drugs and screening chemicals for potential cardiotoxic hazards.

Setting [3] is: 10 μM, after 30 minutes treatment.
Where [4] appears, read: 0.3 μM, after 30 minutes treatment.

In the case of `C=C(C)[C@H]1CN[C@H](C(=O)O)[C@H]1CC(=O)O` [kainic acid], the “frequency of primary peaks relative to control” value in series [1] (1 μM, after 30 minutes treatment) is listed as “increased relative to control”. Moreover, the “peaks detected in calcium oscillation trace (primary / secondary peaks)” value in series [1] (1 μM) is “Primary peaks 118 and numerous secondary peaks 150 are detected”.

Consider `NCCCC(=O)O` [GABA], for which the “frequency of primary peaks relative to control” value in series [1] (setting [3]) is recorded as “significantly lower frequency than control”. Moreover, the “peaks detected in calcium oscillation trace (primary / secondary peaks)” value in series [1] (10 μM) is “Only primary peaks 118 are detected”.

On to `NCC(CC(=O)O)c1ccc(Cl)cc1` (stereo not shown) [baclofen], for which, in series [1] (setting [3]), the “spacing and amplitude regularity of primary peaks” value is “irregular spacing and amplitude”; the “frequency of primary peaks relative to control” value is “significantly lower frequency than control”. Moreover, the “peaks detected in calcium oscillation trace (primary / secondary peaks)” value in series [1] (10 μM) is on record as “Only primary peaks 118 are detected”.

For `CC(C)NCC(O)c1ccc(NS(C)(=O)=O)cc1` (stereo not shown) [sotalol], in series [2] (10 μM), the primary peak prolongation result is “prolongated”; the “spacing of primary peaks” value was “irregular spacing”; the “peaks detected in calcium oscillation trace (primary / secondary peaks)” value was “Primary peaks 118 and secondary peaks 150 are detected”.

`Nc1ccncc1` [4-aminopyridine]: the “frequency of primary peaks relative to control” value in series [1] (30 μM, after 30 minutes treatment) is listed as “increased relative to control”. Moreover, the “peaks detected in calcium oscillation trace (primary / secondary peaks)” value in series [1] (30 μM) was “Primary peaks 118 and secondary peaks 150 are detected”.

As for `C=C[C@H]1C[N@@]2CC[C@H]1C[C@@H]2[C@@H](O)c1ccnc2ccc(OC)cc12` [quinidine], in series [2] (10 μM), the primary peak prolongation result is on record as “prolongated”; the “spacing of primary peaks” value is recorded as “irregular spacing”; the “peaks detected in calcium oscillation trace (primary / secondary peaks)” value is “Primary peaks 118 and secondary peaks 150 are detected”.

Consider `CN(CCOc1ccc(NS(C)(=O)=O)cc1)CCc1ccc(NS(C)(=O)=O)cc1` [dofetilide], for which, in series [2] (10 μM), the “spacing of primary peaks” value is recorded as “irregular spacing”.

With `COc1ccc(CCN2CCC(Nc3nc4ccccc4n3Cc3ccc(F)cc3)CC2)cc1` [astemizole], the “peaks detected in calcium oscillation trace (primary / secondary peaks)” value in series [2] (1 μM) is given as “No valid peaks are detected”.

For the compound `CC(C)[C@@H]1NC(=O)[C@H](C)OC(=O)[C@@H](C(C)C)NC(=O)[C@@H](C(C)C)OC(=O)[C@H](C(C)C)NC(=O)[C@H](C)OC(=O)[C@@H](C(C)C)NC(=O)[C@@H](C(C)C)OC(=O)[C@H](C(C)C)NC(=O)[C@H](C)OC(=O)[C@@H](C(C)C)NC(=O)[C@@H](C(C)C)OC1=O` [valinomycin], in series [1] (setting [4]), the “amplitude and spacing regularity of primary peaks” value is recorded as “much more variable”; the “frequency of primary peaks relative to control” value was “much less than control”. Further, the “peaks detected in calcium oscillation trace (primary / secondary peaks)” value in series [1] (0.3 μM) is “Primary peaks 118 and secondary peaks 150 are detected”.

With `CCCCCCCN(CC)CCCC(O)c1ccc(NS(C)(=O)=O)cc1` (stereo not shown) [ibutilide], in series [2] (1 μM), the primary peak prolongation result is reported as “prolongated”; the “peaks detected in calcium oscillation trace (primary / secondary peaks)” value is “Primary peaks 118 and secondary peaks 150 are present”.
